Legend:
Assay type in all cases: biochemical
[1] = target: T1, GSK3A (GSK3 alpha) (Homo sapiens, UniProt P49840); experiment: Kinase screening service: GSK3A; conditions: average of duplicates
T1 construct: purchased Life Technologies Corporation (Kinase Screening Service)
Description: (§1) The inhibitory effect of PT109 on other kinases including SGK and JNK was detected by the Kinase Screening Service of Life Technologies Corporation (The concentration of compound 9 was 10 μM, measurements were performed in duplicates, and the value was represented by an average) to investigate the selectivity of the compound for JNK and SGK1.

[2] = target: T2, MAP4K4 (HGK) (Homo sapiens, UniProt O95819); experiment: Kinase screening service: MAP4K4; conditions: average of duplicates
T2 construct: purchased Life Technologies Corporation (Kinase Screening Service)
Description: as §1

[3] = target: T3, PDK1 Direct (Homo sapiens, UniProt O15530); experiment: Kinase screening service: PDK1 Direct; conditions: average of duplicates
T3 construct: purchased Life Technologies Corporation (Kinase Screening Service)
Description: as §1

[4] = target: T4, PTK6 (Brk) (Homo sapiens, UniProt Q13882); experiment: Kinase screening service: PTK6; conditions: average of duplicates
T4 construct: purchased Life Technologies Corporation (Kinase Screening Service)
Description: as §1

[5] = target: T5, HIPK1 (Myak) (Homo sapiens, UniProt Q86Z02); experiment: Kinase screening service: HIPK1; conditions: average of duplicates
T5 construct: purchased Life Technologies Corporation (Kinase Screening Service)
Description: as §1

[6] = test system: other kinases including SGK and JNK; experiment: Kinase selectivity of PT109 (whole panel); conditions: 10 μM, kinase panel of Table 2
Description: as §1

[7] = target: T6, SGK2 (Homo sapiens, UniProt Q9HBY8); experiment: Kinase screening service (Life Technologies): SGK2
T6 construct: purchased Life Technologies Corporation (kinase screening service)
Excerpt: (§2) The inhibitory effect of PT109 on SGK and INK was detected by the kinase screening commercialization service of Life Technologies Corporation.

[8] = target: T7, STK22D (TSSK1) (Homo sapiens, UniProt Q9BXA7); experiment: Kinase screening service: STK22D; conditions: average of duplicates
T7 construct: purchased Life Technologies Corporation (Kinase Screening Service)
Description: as §1

[9] = target: T8, MAPK1 (ERK2) (Homo sapiens, UniProt P28482); experiment: Kinase screening service: MAPK1; conditions: average of duplicates
T8 construct: purchased Life Technologies Corporation (Kinase Screening Service)
Description: as §1

[10] = target: T9, PLK4 (Homo sapiens, UniProt O00444); experiment: Kinase screening service: PLK4; conditions: average of duplicates
T9 construct: purchased Life Technologies Corporation (Kinase Screening Service)
Description: as §1

[11] = target: T10, SGK3 (Homo sapiens, UniProt Q96BR1); experiment: Kinase screening service (Life Technologies): SGK3
T10 construct: purchased Life Technologies Corporation (kinase screening service)
Excerpt: as §2

[12] = target: T11, ADRBK1 (GRK2) (Homo sapiens, UniProt P25098); experiment: Kinase screening service: ADRBK1; conditions: average of duplicates
T11 construct: purchased Life Technologies Corporation (Kinase Screening Service)
Description: as §1

[13] = target: T12, GSK3B (GSK3 beta) (Homo sapiens, UniProt P49841); experiment: Kinase screening service: GSK3B; conditions: average of duplicates
T12 construct: purchased Life Technologies Corporation (Kinase Screening Service)
Description: as §1

[14] = target: T13, SGK (SGK1) (Homo sapiens, UniProt O00141); experiment: Kinase screening service (Life Technologies): SGK1; conditions: SGK (SGK1)
T13 construct: IC50; other: SGK (SGK1); other: 10 μM, average of duplicates; SGK (SGK1)
T13 sequence (O00141 whole entry S422D, form open): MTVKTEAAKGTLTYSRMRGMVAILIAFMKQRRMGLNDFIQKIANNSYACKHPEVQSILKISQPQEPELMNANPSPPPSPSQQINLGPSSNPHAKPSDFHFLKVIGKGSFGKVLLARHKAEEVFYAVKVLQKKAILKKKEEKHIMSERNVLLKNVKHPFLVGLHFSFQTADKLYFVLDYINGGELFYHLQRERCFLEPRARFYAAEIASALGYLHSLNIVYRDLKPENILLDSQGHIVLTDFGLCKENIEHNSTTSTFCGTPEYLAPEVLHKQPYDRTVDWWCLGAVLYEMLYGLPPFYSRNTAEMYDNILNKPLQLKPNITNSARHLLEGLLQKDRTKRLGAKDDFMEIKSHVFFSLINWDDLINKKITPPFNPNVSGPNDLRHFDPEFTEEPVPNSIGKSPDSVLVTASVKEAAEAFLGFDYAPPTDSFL
Description: as §2, §1

[15] = test system: SGK (SGK1); experiment: Kinase screening service (Life Technologies): SGK1; conditions: SGK1 versus SGK2 and SGK3
Description: as §2, §1

[16] = target: T14, CHUK (IKK alpha) (Homo sapiens, UniProt O15111); experiment: Kinase screening service: CHUK; conditions: average of duplicates
T14 construct: purchased Life Technologies Corporation (Kinase Screening Service)
Description: as §1

[17] = target: T15, PIK3C2A (PI3K-C2 alpha) (Homo sapiens, UniProt O00443); experiment: Kinase screening service: PIK3C2A; conditions: average of duplicates
T15 construct: purchased Life Technologies Corporation (Kinase Screening Service)
Description: as §1

[18] = target: T16, PDGFRB (PDGFR beta) (Homo sapiens, UniProt P09619); experiment: Kinase screening service: PDGFRB; conditions: average of duplicates
T16 construct: purchased Life Technologies Corporation (Kinase Screening Service)
Description: as §1

[19] = target: T17, NTRK1 (TRKA) (Homo sapiens, UniProt P04629); experiment: Kinase screening service: NTRK1; conditions: average of duplicates
T17 construct: purchased Life Technologies Corporation (Kinase Screening Service)
Description: as §1

[20] = target: T18, PKN1 (PRK1) (Homo sapiens, UniProt Q16512); experiment: Kinase screening service: PKN1; conditions: average of duplicates
T18 construct: purchased Life Technologies Corporation (Kinase Screening Service)
Description: as §1

[21] = target: T19, PTK2B (FAK2) (Homo sapiens, UniProt Q14289); experiment: Kinase screening service: PTK2B; conditions: average of duplicates
T19 construct: purchased Life Technologies Corporation (Kinase Screening Service)
Description: as §1

[22] = target: T20, RPS6KA3 (RSK2) (Homo sapiens, UniProt P51812); experiment: Kinase screening service: RPS6KA3; conditions: average of duplicates
T20 construct: purchased Life Technologies Corporation (Kinase Screening Service)
T20 sequence (P51812 whole entry): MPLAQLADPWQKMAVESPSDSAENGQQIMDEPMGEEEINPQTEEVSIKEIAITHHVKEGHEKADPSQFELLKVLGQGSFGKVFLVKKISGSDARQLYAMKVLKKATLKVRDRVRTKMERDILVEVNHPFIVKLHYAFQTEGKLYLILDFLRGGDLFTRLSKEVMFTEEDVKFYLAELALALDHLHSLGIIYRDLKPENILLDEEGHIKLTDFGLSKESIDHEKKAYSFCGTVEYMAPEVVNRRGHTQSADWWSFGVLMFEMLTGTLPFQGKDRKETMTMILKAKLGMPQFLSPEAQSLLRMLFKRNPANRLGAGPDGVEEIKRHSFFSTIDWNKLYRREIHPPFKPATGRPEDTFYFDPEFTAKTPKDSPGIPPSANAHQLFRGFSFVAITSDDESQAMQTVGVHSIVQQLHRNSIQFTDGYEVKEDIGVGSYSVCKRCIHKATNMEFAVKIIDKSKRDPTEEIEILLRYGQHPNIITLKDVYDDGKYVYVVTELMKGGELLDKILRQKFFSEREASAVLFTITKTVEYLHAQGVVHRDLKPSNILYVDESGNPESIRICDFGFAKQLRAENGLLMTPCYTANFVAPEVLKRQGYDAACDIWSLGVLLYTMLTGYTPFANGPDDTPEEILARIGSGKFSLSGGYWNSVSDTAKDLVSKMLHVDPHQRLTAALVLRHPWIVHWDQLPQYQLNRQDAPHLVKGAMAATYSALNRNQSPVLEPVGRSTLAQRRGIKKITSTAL
Description: as §1

[23] = target: T21, PIK3C3 (hVPS34) (Homo sapiens, UniProt Q8NEB9); experiment: Kinase screening service: PIK3C3; conditions: average of duplicates
T21 construct: purchased Life Technologies Corporation (Kinase Screening Service)
Description: as §1

[24] = target: T22, CDK1/cyclin B (Homo sapiens, UniProt P06493); experiment: Kinase screening service: CDK1/cyclin B; conditions: average of duplicates
T22 construct: purchased Life Technologies Corporation (Kinase Screening Service)
T22 sequence (P06493 whole entry): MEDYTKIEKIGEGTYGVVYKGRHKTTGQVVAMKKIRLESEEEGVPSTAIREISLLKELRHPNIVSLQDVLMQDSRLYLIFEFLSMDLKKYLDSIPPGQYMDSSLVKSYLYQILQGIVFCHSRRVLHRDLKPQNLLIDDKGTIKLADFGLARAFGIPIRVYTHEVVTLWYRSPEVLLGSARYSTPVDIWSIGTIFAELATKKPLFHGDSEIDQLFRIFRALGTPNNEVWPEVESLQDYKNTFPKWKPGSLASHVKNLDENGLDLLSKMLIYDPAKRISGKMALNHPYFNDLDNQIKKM
T22 sequence (P14635 whole entry partner): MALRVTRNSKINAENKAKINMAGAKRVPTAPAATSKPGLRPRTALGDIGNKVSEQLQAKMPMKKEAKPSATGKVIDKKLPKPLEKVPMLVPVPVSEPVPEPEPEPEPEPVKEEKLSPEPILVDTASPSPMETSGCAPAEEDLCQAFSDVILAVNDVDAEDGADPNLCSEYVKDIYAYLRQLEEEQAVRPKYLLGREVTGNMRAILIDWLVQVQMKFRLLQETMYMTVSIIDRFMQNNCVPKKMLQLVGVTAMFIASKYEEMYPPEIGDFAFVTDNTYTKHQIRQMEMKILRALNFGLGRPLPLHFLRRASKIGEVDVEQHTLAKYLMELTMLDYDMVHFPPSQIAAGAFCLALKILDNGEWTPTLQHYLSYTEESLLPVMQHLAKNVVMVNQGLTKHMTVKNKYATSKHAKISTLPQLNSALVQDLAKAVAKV
Description: as §1

[25] = target: T23, TEC (Homo sapiens, UniProt P42680); experiment: Kinase screening service: TEC; conditions: average of duplicates
T23 construct: purchased Life Technologies Corporation (Kinase Screening Service)
Description: as §1

[26] = target: T24, FLT1 (VEGFR1) (Homo sapiens, UniProt P17948); experiment: Kinase screening service: FLT1; conditions: average of duplicates
T24 construct: purchased Life Technologies Corporation (Kinase Screening Service)
Description: as §1

[27] = target: T25, HCK (Homo sapiens, UniProt P08631); experiment: Kinase screening service: HCK; conditions: average of duplicates
T25 construct: purchased Life Technologies Corporation (Kinase Screening Service)
T25 sequence (P08631 whole entry): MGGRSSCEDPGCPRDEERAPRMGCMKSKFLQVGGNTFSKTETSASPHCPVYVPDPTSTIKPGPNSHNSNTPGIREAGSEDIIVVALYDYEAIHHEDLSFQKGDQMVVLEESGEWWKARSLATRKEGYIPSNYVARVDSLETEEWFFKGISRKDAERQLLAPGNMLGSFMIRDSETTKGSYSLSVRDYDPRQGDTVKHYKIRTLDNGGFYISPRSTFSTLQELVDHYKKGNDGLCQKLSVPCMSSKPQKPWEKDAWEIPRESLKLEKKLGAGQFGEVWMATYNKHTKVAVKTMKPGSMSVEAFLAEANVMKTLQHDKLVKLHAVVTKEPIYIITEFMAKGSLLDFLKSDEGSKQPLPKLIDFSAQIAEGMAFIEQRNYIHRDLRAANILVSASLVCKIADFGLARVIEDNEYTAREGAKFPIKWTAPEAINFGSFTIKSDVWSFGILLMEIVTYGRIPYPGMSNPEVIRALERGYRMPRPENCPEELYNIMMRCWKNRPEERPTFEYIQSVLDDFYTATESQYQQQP
Description: as §1

[28] = target: T26, FGFR1 (Homo sapiens, UniProt P11362); experiment: Kinase screening service: FGFR1; conditions: average of duplicates
T26 construct: purchased Life Technologies Corporation (Kinase Screening Service)
Description: as §1

[29] = target: T27, MAP3K7/MAP3K7IP1 (TAK1-TAB1) (Homo sapiens, UniProt O43318); experiment: Kinase screening service: MAP3K7/MAP3K7IP1; conditions: average of duplicates
T27 construct: purchased Life Technologies Corporation (Kinase Screening Service)
T27 sequence (O43318 with tags, fused parts or gaps limits assumed): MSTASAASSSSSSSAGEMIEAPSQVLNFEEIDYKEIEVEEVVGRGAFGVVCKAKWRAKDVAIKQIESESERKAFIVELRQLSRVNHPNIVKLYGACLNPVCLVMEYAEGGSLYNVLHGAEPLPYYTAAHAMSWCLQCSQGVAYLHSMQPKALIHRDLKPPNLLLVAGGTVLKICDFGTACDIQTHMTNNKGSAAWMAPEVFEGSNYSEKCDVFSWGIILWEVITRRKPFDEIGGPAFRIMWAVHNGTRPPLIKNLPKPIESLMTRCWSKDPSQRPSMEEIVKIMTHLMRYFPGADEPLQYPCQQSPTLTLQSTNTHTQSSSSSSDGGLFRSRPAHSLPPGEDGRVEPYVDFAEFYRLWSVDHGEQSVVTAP
Description: as §1

[30] = target: T28, TYRO3 (RSE) (Homo sapiens, UniProt Q06418); experiment: Kinase screening service: TYRO3; conditions: average of duplicates
T28 construct: purchased Life Technologies Corporation (Kinase Screening Service)
Description: as §1

[31] = target: T29, TBK1 (Homo sapiens, UniProt Q9UHD2); experiment: Kinase screening service: TBK1; conditions: average of duplicates
T29 construct: purchased Life Technologies Corporation (Kinase Screening Service)
Description: as §1

[32] = target: T30, WNK3 (Homo sapiens, UniProt Q9BYP7); experiment: Kinase screening service: WNK3; conditions: average of duplicates
T30 construct: purchased Life Technologies Corporation (Kinase Screening Service)
T30 sequence (Q9BYP7 whole entry): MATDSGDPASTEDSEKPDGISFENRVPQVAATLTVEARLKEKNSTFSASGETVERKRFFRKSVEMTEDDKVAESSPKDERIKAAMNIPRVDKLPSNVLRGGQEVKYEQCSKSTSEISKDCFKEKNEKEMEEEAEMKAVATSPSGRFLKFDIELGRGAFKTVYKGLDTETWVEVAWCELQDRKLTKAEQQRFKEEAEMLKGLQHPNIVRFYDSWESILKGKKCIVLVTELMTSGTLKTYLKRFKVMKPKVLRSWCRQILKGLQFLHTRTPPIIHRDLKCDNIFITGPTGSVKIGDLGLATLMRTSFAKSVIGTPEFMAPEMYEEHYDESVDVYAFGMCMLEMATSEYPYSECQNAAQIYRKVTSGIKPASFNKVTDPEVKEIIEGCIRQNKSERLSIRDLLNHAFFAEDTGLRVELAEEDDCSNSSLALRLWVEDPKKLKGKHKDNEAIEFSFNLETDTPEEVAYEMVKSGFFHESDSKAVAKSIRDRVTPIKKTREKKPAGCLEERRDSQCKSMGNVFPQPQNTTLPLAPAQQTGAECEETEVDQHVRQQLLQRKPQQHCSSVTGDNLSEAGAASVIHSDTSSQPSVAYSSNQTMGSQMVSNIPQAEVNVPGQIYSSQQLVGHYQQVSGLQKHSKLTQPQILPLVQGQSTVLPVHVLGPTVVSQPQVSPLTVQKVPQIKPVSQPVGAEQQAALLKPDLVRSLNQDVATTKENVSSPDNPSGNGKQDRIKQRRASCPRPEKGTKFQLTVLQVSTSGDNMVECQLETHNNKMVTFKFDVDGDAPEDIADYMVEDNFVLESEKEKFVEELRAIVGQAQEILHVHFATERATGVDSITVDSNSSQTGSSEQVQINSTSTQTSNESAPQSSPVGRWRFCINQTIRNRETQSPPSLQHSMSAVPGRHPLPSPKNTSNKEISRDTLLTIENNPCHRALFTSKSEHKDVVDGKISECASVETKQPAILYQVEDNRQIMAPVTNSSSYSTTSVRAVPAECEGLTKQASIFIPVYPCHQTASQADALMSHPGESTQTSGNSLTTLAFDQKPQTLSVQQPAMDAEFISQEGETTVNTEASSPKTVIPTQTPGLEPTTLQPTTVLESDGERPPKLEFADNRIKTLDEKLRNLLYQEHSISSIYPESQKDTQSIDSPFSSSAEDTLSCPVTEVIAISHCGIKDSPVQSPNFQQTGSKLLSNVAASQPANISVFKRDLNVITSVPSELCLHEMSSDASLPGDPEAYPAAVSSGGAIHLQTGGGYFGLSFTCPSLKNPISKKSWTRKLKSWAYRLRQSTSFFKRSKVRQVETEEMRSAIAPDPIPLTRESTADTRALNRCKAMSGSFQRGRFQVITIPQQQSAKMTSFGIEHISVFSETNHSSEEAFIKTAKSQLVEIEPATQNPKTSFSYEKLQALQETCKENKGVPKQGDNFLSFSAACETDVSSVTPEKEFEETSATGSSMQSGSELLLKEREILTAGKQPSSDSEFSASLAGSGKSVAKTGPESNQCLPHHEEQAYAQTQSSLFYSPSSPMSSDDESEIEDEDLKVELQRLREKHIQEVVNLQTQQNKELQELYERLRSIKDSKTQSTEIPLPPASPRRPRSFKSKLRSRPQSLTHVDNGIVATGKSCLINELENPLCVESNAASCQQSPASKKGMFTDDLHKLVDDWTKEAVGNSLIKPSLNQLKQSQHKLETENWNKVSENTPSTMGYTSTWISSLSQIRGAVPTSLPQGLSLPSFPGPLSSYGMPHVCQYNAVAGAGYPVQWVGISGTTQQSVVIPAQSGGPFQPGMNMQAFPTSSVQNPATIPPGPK
Description: as §1

[33] = target: T31, CSNK1E (CK1 epsilon) (Homo sapiens, UniProt P49674); experiment: Kinase screening service: CSNK1E; conditions: average of duplicates
T31 construct: purchased Life Technologies Corporation (Kinase Screening Service)
T31 sequence (P49674 whole entry): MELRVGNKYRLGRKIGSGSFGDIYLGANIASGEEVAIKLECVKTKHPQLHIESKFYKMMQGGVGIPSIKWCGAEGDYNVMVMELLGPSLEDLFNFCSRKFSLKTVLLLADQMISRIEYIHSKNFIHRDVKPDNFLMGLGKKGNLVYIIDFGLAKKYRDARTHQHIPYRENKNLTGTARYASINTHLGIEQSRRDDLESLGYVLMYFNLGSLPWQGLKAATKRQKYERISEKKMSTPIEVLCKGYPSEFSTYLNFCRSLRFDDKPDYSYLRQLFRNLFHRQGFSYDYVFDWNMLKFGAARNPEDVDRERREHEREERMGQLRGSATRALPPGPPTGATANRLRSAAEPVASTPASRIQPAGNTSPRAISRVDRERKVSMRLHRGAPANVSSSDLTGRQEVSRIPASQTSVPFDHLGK
Description: as §1

[34] = target: T32, TAOK2 (TAO1) (Homo sapiens, UniProt Q9UL54); experiment: Kinase screening service: TAOK2; conditions: average of duplicates
T32 construct: purchased Life Technologies Corporation (Kinase Screening Service)
Description: as §1

[35] = target: T33, PDK1 (Homo sapiens, UniProt O15530); experiment: Kinase screening service: PDK1; conditions: average of duplicates
T33 construct: purchased Life Technologies Corporation (Kinase Screening Service)
Description: as §1

[36] = target: T34, SLK (Homo sapiens, UniProt Q9H2G2); experiment: Kinase screening service: SLK; conditions: average of duplicates
T34 construct: purchased Life Technologies Corporation (Kinase Screening Service)
Description: as §1

[37] = target: T35, PAK6 (Homo sapiens, UniProt Q9NQU5); experiment: Kinase screening service: PAK6; conditions: average of duplicates
T35 construct: purchased Life Technologies Corporation (Kinase Screening Service)
Description: as §1

## O=C(CCCCC1CCSS1)NC1CCC(Nc2cccc3cnccc23)CC1 (centres unmarked) [PT109, 5-(1,2-dithiolan-3-yl)-N-(4-(isoquinolin-5-ylamino)cyclohexyl) pentanamide]
[1]
  inhibition at 10 µM: 41%
[2]
  inhibition at 10 µM: 34%
[3]
  inhibition at 10 µM: 51%
[4]
  inhibition at 10 µM: 7%
[5]
  inhibition at 10 µM: 0%
[6]
  specificity for SGK1 and JNK: better specificity for SGK1 and JNK
[7]
  IC50: 5.6 µM
[8]
  inhibition at 10 µM: -2%
[9]
  inhibition at 10 µM: 4%
[10]
  inhibition at 10 µM: 35%
[11]
  IC50: 26.4 µM
[12]
  inhibition at 10 µM: 6%
[13]
  inhibition at 10 µM: 61%
[14]; 10 μM, average of duplicates
  % Inhibition: 91%
[14]
  IC50: 1.34 µM
[15]
  specificity for SGK1: better specificity for SGK1
[16]
  inhibition at 10 µM: 16%
[17]
  inhibition at 10 µM: 3%
[18]
  inhibition at 10 µM: 7%
[19]
  inhibition at 10 µM: 35%
[20]
  inhibition at 10 µM: 16%
[21]
  inhibition at 10 µM: 8%
[22]
  inhibition at 10 µM: 54%
[23]
  inhibition at 10 µM: 11%
[24]
  inhibition at 10 µM: 14%
[25]
  inhibition at 10 µM: 26%
[26]
  inhibition at 10 µM: 3%
[27]
  inhibition at 10 µM: 9%
[28]
  inhibition at 10 µM: -3%
[29]
  inhibition at 10 µM: 39%
[30]
  inhibition at 10 µM: 12%
[31]
  inhibition at 10 µM: 10%
[32]
  inhibition at 10 µM: 7%
[33]
  inhibition at 10 µM: 10%
[34]
  inhibition at 10 µM: -6%
[35]
  inhibition at 10 µM: 5%
[36]
  inhibition at 10 µM: 5%
[37]
  inhibition at 10 µM: -16%
